Drawing on patent US11826430B2, “Anti-cancer nuclear hormone receptor-targeting compounds” (Nuvation Bio Inc., priority 2019, dated 2023), this text covers IC50 for 6 molecules.

Bounds are passed on as bounds.

One experiment addresses Human recombinant PARP2 (Homo sapiens (Human), UniProt Q9UGN5). The experiment is described as follows: RBC HotSpot PARP2 radioisotope-based filter binding assay. Conditions: read-out: PARP2 IC50; 2.5 nM PARP2, histone H3, 10 μM 32P-NAD+.
The next experiment has as its target Human recombinant PARP1 (Homo sapiens (Human), UniProt P09874). Put plainly: RBC HotSpot PARP1 radioisotope-based filter binding assay. The conditions noted are these: read-out: PARP1 IC50; 2.5 nM PARP1, histone H4, 10 μM 32P-NAD+.
Another experiment deals with HT-29 cells. The experiment is described as follows: Cell proliferation assay, CellTiter Glo. The conditions noted are these: Homo sapiens, HT-29, 72 h; cell growth inhibition, three days of treatment. The format is cell-based. As for the experimental part:
(§1) a. […] IC50s were determined using 8 concentrations/compound. […] Ki=IC50/(1+[L]/Kd) c.
(§2) Cells were plated at varying density in the respective growth medium in 96 well plates. 24 hr later, cells were treated, in triplicate or quadruplicate, with test articles prepared in a range of concentrations by series dilution of DMSO stock solutions in growth medium and incubated for three to seven days. The number of viable 22RV1 and HT-29 cells was measured using CellTiter Glo assay (CTG, Promega, Madison, WI) after three days of treatment. Cell viability data were plotted using GraphPad Prism (GraphPad Software, Inc., San Diego, CA). In addition, a nonlinear regression model with a sigmoidal dose response and variable slope within GraphPad Prism was used to calculate the IC50 value of individual test articles.
A general note: In ATP-based viability assays light output follows the ATP content of the culture.

Another experiment relates to 22RV1 cells. The experiment is described as follows: Cell proliferation assay, CellTiter Glo. It counts as cell-based. Conditions: Homo sapiens, 22Rv1, 72 h; cell growth inhibition, three days of treatment. As for the experimental part:
as §1, §2

The next experiment deals with AR in LNCaP cytosol (Homo sapiens (Human), UniProt P10275, T878A). Put plainly: AR binding assay (3H-methyltrienolone displacement). Conditions: read-out: AR IC50, 4° C. for 24 hours.
AR in LNCaP cytosol, sequence (P10275 whole entry T878A): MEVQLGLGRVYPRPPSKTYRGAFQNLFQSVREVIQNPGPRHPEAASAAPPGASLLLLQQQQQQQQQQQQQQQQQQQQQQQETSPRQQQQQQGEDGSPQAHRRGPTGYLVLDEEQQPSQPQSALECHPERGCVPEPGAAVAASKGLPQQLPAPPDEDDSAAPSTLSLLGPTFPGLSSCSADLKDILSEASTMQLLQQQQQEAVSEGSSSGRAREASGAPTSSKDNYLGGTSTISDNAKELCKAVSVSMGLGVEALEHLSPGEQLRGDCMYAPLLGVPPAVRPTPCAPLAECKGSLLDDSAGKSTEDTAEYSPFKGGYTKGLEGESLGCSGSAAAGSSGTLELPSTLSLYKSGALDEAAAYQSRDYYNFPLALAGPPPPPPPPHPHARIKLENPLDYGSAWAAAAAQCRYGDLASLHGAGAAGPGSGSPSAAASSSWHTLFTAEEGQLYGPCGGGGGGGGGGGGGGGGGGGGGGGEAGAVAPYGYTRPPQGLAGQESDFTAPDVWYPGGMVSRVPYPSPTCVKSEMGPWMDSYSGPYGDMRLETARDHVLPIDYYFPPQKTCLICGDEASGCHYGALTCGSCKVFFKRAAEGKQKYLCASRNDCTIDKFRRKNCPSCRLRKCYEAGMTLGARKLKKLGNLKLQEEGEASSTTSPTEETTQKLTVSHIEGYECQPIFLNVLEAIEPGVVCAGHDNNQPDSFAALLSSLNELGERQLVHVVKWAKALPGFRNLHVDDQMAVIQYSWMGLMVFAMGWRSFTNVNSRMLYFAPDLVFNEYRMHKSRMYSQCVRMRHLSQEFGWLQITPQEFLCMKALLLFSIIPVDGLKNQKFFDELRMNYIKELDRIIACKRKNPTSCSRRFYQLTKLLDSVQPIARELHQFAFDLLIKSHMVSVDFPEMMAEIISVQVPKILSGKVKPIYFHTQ

Human recombinant PARP2, sequence (Q9UGN5 whole entry): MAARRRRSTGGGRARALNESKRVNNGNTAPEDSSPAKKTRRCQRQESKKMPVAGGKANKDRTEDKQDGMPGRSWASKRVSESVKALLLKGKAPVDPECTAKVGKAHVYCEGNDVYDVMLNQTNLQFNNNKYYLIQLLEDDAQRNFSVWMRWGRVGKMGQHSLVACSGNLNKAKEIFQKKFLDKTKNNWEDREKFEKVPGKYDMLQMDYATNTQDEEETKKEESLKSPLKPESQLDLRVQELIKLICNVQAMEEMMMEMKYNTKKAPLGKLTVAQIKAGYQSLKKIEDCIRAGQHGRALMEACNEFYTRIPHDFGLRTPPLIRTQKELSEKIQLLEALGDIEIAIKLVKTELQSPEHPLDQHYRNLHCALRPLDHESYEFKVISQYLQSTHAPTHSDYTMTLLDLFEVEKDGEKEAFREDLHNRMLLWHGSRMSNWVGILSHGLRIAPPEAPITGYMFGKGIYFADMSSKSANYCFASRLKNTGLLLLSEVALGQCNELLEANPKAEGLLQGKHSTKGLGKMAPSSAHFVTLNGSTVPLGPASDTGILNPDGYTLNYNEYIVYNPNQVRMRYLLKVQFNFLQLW
Human recombinant PARP1, sequence (P09874 whole entry): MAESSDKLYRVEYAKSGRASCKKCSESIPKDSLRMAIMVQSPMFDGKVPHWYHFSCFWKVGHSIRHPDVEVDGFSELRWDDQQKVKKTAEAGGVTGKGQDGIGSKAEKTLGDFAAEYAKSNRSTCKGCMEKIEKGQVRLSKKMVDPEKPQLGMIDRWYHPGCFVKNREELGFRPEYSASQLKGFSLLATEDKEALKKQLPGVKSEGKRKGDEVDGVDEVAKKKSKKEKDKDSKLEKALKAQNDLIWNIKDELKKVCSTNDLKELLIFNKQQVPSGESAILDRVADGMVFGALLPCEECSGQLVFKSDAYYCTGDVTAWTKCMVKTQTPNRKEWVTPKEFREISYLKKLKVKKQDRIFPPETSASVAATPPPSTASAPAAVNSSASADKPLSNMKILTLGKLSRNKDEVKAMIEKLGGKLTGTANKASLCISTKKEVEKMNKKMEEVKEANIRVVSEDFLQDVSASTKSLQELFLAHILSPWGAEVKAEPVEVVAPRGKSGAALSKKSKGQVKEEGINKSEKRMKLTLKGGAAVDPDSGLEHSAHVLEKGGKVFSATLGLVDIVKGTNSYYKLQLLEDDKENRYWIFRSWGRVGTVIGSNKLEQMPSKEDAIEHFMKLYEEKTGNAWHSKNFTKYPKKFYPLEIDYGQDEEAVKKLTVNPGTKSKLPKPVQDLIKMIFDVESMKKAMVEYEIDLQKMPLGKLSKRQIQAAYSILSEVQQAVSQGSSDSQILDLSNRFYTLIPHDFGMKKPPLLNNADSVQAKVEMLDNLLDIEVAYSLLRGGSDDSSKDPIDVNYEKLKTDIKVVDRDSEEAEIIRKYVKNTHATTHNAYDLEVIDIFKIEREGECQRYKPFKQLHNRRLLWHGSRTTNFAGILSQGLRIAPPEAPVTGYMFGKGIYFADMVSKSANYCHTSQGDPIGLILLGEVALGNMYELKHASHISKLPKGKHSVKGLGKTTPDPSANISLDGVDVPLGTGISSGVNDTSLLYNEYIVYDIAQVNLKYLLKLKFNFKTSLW
Description for AR in LNCaP cytosol: (§3) RBC HotSpot Poly(ADP-ribose) Polymerases 1 (PARP1) and Poly(ADP-ribose) Polymerases 2 (PARP2) Assays: The assay was conducted at Reaction Biology Corporation (RBC; Malvern, PA). The assay principle is radioisotope-based filter binding assay where incorporation of radioisotope-labeled NAD^+ into the substrate captured on filter is detected after washout free NAD^+. Data were analyzed using Excel and GraphPad Prism software for IC50 curve fits. Each assay was conducted with PJ34 as a positive control. PARP1 assay: Human recombinant PARP1 at a final concentration of 2.5 nM was combined with histone H4 (20 μM) and test articles at various concentrations in reaction buffer (50 mM Tris-HCL, pH 8.0, 50 mM NaCl, 10 mM MgCl2, 1 mM DTT, 1% DMSO, and 20 μg/mL activated DNA). The solution was inoculated for 20 min at room temperature and the reaction initiated by adding [adenylate-^32P]-Nicotinamide Adenine Dinucleotide, ^32P-NAD^+ at a final concentration of 10 μM. After incubation for 2 hrs at room temperature, the reaction mixture was filtered and washed with 0.75% phosphoric acid for radioactivity detection. • ii. PARP2 assay: Human recombinant PARP2 at a final concentration of 2.5 nM was combined with histone H3 (20 μM) and test articles at various concentrations in reaction buffer (50 mM Tris-HCL, pH 8.0, 50 mM NaCl, 10 mM MgCl2, 1 mM DTT, 1% DMSO, and 20 μg/mL activated DNA). The solution was inoculated for 20 min at room temperature and the reaction was initiated by adding [adenylate-^32P]-Nicotinamide Adenine Dinucleotide, ^32P-NAD^+ at a final concentration of 10 μM. After incubation for 2 hrs at room temperature, the reaction mixture was filtered and washed with 0.75% phosphoric acid for radioactivity detection. b. AR binding assay: AR in LNCaP cytosol was used for determining the binding affinity of test articles and the reference compound—progesterone (Sigma, Cat: E2785, St. Louis, MO). IC50s were determined using 8 concentrations/compound. Cytosol was plated at 200 μg/well (100 μL) into a 96-well conical polypropylene plate (Agilent, Cat: 5042-1385, Santa Clara, CA) and mixed with 3 μL of test compound. After adding 100 μL of ^3H-methyltrienolone (PerkinElmer, Cat: NET590250UC, San Jose, CA), the plate was sealed and shaken at 300 rpm at 4° C. for 24 hours. Post incubation, 100 μL of radioligand adsorption buffer containing 10 mM Tris-HCl, pH 7.4; 1.5 mM EDTA; 1 mM DTT; 0.25% charcoal; 0.0025% dextran was added to individual well. Plate was shaken for 15 min at 4° C. followed by centrifugation at 3000 rpm for 30 min at 4° C. 150 μL of supernatant was transferred into scint-tube (PerkinElmer, Cat: 6000192) and mixed with 2 mL of Ultima Gold Cocktail (PerkinElmer, Cat: 6013329). Radioactivity was counted using a TriCarb 2910 TR scintillation counter (PerkinElmer). Inhibition of the radioactivity by test articles were calculated using the equation below: % Inhibition=(1−(Assay well-Average_LC)/(Average_HC-Average_LC))×100%. IC50 values were calculated and graphed using the model “log(inhibitor) vs. response—Variable slope” included in GraphPad Prism 5 (San Diego, CA). […] Ki=IC50/(1+[L]/Kd) c.
Description for Human recombinant PARP1: as §3
Description for Human recombinant PARP2: as §3

Usually IC50 stands for the concentration at which inhibition is half-maximal. Take `CC1(C)C(=O)N(c2ccc(C#N)c(C(F)(F)F)c2)C(=O)N1CCNC(=O)c1cc(Cc2n[nH]c(=O)c3ccccc23)ccc1F` [Compound 1.8, N-(2-(3-(4-cyano-3-(trifluoromethyl)phenyl)-5,5-dimethyl-2,4-dioxoimidazolidin-1-yl)ethyl)-2-fluoro-5-((4-oxo-3,4-dihydrophthalazin-1-yl)methyl)benzamide]: the IC50 was 1 nM at Human recombinant PARP2; 10 nM on Human recombinant PARP1; 17000 nM in the experiment with HT-29 cells; 5000 nM with 22RV1 cells; 503 nM at AR in LNCaP cytosol.

For the molecule `C[C@](O)(CS(=O)(=O)C1CCN(C(=O)c2cc(Cc3n[nH]c(=O)c4ccccc34)ccc2F)CC1)C(=O)Nc1ccc(C#N)c(C(F)(F)F)c1` [Compound 1.4, (R)—N-(4-cyano-3-(trifluoromethyl)phenyl)-3-(1-(2-fluoro-5-((4-oxo-3,4-dihydrophthalazin-1-yl)methyl)benzoyl)piperidin-4-ylsulfonyl)-2-hydroxy-2-methylpropanamide], the IC50 was 0.2 nM on Human recombinant PARP2; 0.6 nM at Human recombinant PARP1; more than 30000 nM with HT-29 cells; 21000 nM with 22RV1 cells; 1030 nM on AR in LNCaP cytosol.

With `C[C@](O)(COC1CCN(C(=O)c2cc(Cc3n[nH]c(=O)c4ccccc34)ccc2F)CC1)C(=O)Nc1ccc(C#N)c(C(F)(F)F)c1` [Compound 1.5, (S)—N-(4-cyano-3-(trifluoromethyl)phenyl)-3-(1-(2-fluoro-5-((4-oxo-3,4-dihydrophthalazin-1-yl)methyl)benzoyl)piperidin-4-yloxy)-2-hydroxy-2-methylpropanamide], the 50% inhibitory concentration (IC50) on Human recombinant PARP2 is 0.4 nM; on Human recombinant PARP1 it was 2 nM; with HT-29 cells it was 20000 nM; in the experiment with 22RV1 cells it was 14000 nM; on AR in LNCaP cytosol, 6670 nM.

As to `Cn1ncnc1[C@H]1c2n[nH]c(=O)c3cc(F)cc(c23)N[C@@H]1c1ccc(N2C(=S)N(c3ccc(C#N)c(C(F)(F)F)c3)C(=O)C2(C)C)cc1` [Compound 1.2a, 4-(3-(4-((8S,9R)-5-fluoro-9-(1-methyl-1H-1,2,4-triazol-5-yl)-3-oxo-3,7,8,9-tetrahydro-2H-pyrido[4,3,2-de]phthalazin-8-yl)phenyl)-4,4-dimethyl-5-oxo-2-thioxoimidazolidin-1-yl)-2-(trifluoromethyl)benzonitrile], the IC50 is 0.3 nM on Human recombinant PARP2, more than 10000 nM in the experiment on HT-29 cells, more than 10000 nM with 22RV1 cells and more than 3750 nM at AR in LNCaP cytosol.

For the molecule `CC1(C)C(=O)N(c2ccc(C#N)c(C(F)(F)F)c2)C(=S)N1CCNC(=O)c1cc(Cc2n[nH]c(=O)c3ccccc23)ccc1F` [Compound 1.6, N-(2-(3-(4-cyano-3-(trifluoromethyl)phenyl)-5,5-dimethyl-4-oxo-2-thioxoimidazolidin-1-yl)ethyl)-2-fluoro-5-((4-oxo-3,4-dihydrophthalazin-1-yl)methyl)benzamide], the IC50 was determined as 0.6 nM at Human recombinant PARP2; 5 nM at Human recombinant PARP1; 10000 nM in the experiment on HT-29 cells; 6000 nM with 22RV1 cells; 94 nM at AR in LNCaP cytosol.

Consider `CC1(C)C(=O)N(c2ccc([N+](=O)[O-])c(C(F)(F)F)c2)C(=O)N1CCNC(=O)c1cc(Cc2n[nH]c(=O)c3ccccc23)ccc1F` [Compound 1.7, N-(2-(5,5-dimethyl-3-(4-nitro-3-(trifluoromethyl)phenyl)-2,4-dioxoimidazolidin-1-yl)ethyl)-2-fluoro-5-((4-oxo-3,4-dihydrophthalazin-1-yl)methyl)benzamide], for which the IC50 on Human recombinant PARP2 amounted to 1 nM; at Human recombinant PARP1, 7 nM; in the experiment on HT-29 cells, 10000 nM; in the experiment on 22RV1 cells, 3000 nM; at AR in LNCaP cytosol, 4620 nM.
